Assay results published in ChEMBL document CHEMBL1201862, “PubChem BioAssay data set” (2004).
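Tested at 5 concentrations; 48 h exposure; 96-well plates; endpoints linearly interpolated, else capped at highest concentration. GI50: concentration for 50% inhibition of growth.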 The source made the active and inactive calls. No stated cut-off is given here; in the data, active = GI50 up to about 1.1 µM and inactive = higher.

How the values were obtained:
Experiment in all cases: inhibition of tumour cell growth, NCI panel, 48 h
786-0 = test system: 786-0
CAKI-1 = test system: CAKI-1
CCRF-CEM = test system: CCRF-CEM
HOP-92 = test system: HOP-92
M14 = test system: M14
Malme-3M = test system: Malme-3M
NCI-H460 = test system: NCI-H460
OVCAR-3 = test system: OVCAR-3
OVCAR-8 = test system: OVCAR-8
SF-268 = test system: SF-268
SK-MEL-28 = test system: SK-MEL-28
SN12C = test system: SN12C
UO-31 = test system: UO-31
HCT-15 = test system: HCT-15
MCF7 = test system: MCF7
SF-539 = test system: SF-539

| SMILES | GI50 (786-0) | GI50 (CAKI-1) | GI50 (CCRF-CEM) | GI50 (HOP-92) | GI50 (M14) | GI50 (Malme-3M) | GI50 (NCI-H460) | GI50 (OVCAR-3) | GI50 (OVCAR-8) | GI50 (SF-268) | GI50 (SK-MEL-28) | GI50 (SN12C) | GI50 (UO-31) | GI50 (HCT-15) | GI50 (MCF7) | GI50 (SF-539) |
| --- | --- | --- | --- | --- | --- | --- | --- | --- | --- | --- | --- | --- | --- | --- | --- | --- |
| O=C(O)c1cc(=O)c2cc(C(=O)c3cccs3)c(Cl)c(Cl)c2o1 | > 100 µM (inactive) | > 100 µM (inactive) | > 100 µM (inactive) | > 100 µM (inactive) | > 100 µM (inactive) | > 100 µM (inactive) | > 100 µM (inactive) | > 100 µM (inactive) | > 100 µM (inactive) | > 100 µM (inactive) | > 100 µM (inactive) | > 100 µM (inactive) | > 100 µM (inactive) | – | – | – |
| COc1cc(/N=N\c2ccc(OC)c(S(=O)(=O)O)c2)c(C)cc1/N=N\c1ccc(/C=C/c2ccc(/N=[N+](/[O-])c3ccc(/C=C/c4ccc(/N=N/c5cc(C)c(/N=N\c6ccc(OC)c(S(=O)(=O)O)c6)cc5OC)cc4S(=O)(=O)O)c(S(=O)(=O)O)c3)cc2S(=O)(=O)O)c(S(=O)(=O)O)c1 | – | – | > 100 µM (inactive) | > 75.2 µM (inactive) | – | > 100 µM (inactive) | > 100 µM (inactive) | > 100 µM (inactive) | > 100 µM (inactive) | > 100 µM (inactive) | > 100 µM (inactive) | > 100 µM (inactive) | > 100 µM (inactive) | > 100 µM | > 100 µM (inactive) | > 100 µM (inactive) |
| CC(C)CC(N)C(=O)OCN1C(=O)C2C3C=CC(C2C1=O)C1C2C(=O)N(COC(=O)C(N)CC(C)C)C(=O)C2C31 (stereo not drawn) | > 100 µM (inactive) | > 100 µM (inactive) | 75.3 µM (inactive) | > 100 µM (inactive) | > 100 µM (inactive) | > 100 µM (inactive) | > 59.7 µM (inactive) | > 100 µM (inactive) | > 100 µM (inactive) | > 100 µM (inactive) | > 100 µM (inactive) | > 100 µM (inactive) | > 100 µM (inactive) | > 45 µM | – | > 100 µM (inactive) |
| COc1ccc(CCc2cc(OC)c(O)c(OC)c2)cc1 | > 100 µM (inactive) | 42 µM (inactive) | 77.1 µM (inactive) | 66.8 µM (inactive) | 77.3 µM (inactive) | 74.1 µM (inactive) | 82 µM (inactive) | 79.4 µM (inactive) | > 100 µM (inactive) | 73.5 µM (inactive) | 19.6 µM (inactive) | > 100 µM (inactive) | 42.6 µM (inactive) | – | – | 60.7 µM (inactive) |
| COc1ccc(OC)c2c1C(=O)C1CC1(Br)C2=O (stereo not drawn) | > 100 µM (inactive) | > 100 µM (inactive) | > 100 µM (inactive) | – | > 100 µM (inactive) | > 100 µM (inactive) | > 100 µM (inactive) | > 100 µM (inactive) | > 100 µM (inactive) | > 100 µM (inactive) | > 100 µM (inactive) | > 100 µM (inactive) | > 100 µM (inactive) | > 100 µM | – | > 100 µM (inactive) |
| NC(=O)c1ccc([N+](=O)[O-])cc1 | > 100 µM (inactive) | > 100 µM (inactive) | > 100 µM (inactive) | – | > 100 µM (inactive) | > 100 µM (inactive) | > 100 µM (inactive) | > 100 µM (inactive) | > 100 µM (inactive) | > 100 µM (inactive) | > 100 µM (inactive) | > 100 µM (inactive) | > 100 µM (inactive) | > 100 µM | – | > 100 µM (inactive) |
| COc1cccc(N2C(=O)[C@H]3CC(C)c4c([nH]c5ccccc45)[C@H]3C2=O)c1 (stereo partly drawn) | 21.7 µM (inactive) | 39.6 µM (inactive) | 64.4 µM (inactive) | 20.7 µM (inactive) | > 100 µM (inactive) | 92.3 µM (inactive) | > 100 µM (inactive) | 40.1 µM (inactive) | 50 µM (inactive) | > 100 µM (inactive) | 62.4 µM (inactive) | 78 µM (inactive) | 84.7 µM (inactive) | > 100 µM | – | 29.1 µM (inactive) |
| COCCN1C2=CCCCC2=Nc2c(N)nc(N)nc21 | > 100 µM (inactive) | > 100 µM (inactive) | > 100 µM (inactive) | > 100 µM (inactive) | > 100 µM (inactive) | > 100 µM (inactive) | > 100 µM (inactive) | 38 µM (inactive) | > 100 µM (inactive) | > 100 µM (inactive) | > 100 µM (inactive) | > 100 µM (inactive) | > 100 µM (inactive) | > 100 µM | – | > 100 µM (inactive) |
| COc1ccc(OC)c(NC(=O)C(=O)NNC(=O)c2sc(NNC(C)=O)nc2C)c1 | 35.6 µM (inactive) | 41.3 µM (inactive) | 16.9 µM (inactive) | 8.69 µM (inactive) | 50.9 µM (inactive) | 49.2 µM (inactive) | 30.8 µM (inactive) | 21.8 µM (inactive) | 34.9 µM (inactive) | 27.3 µM (inactive) | 61.2 µM (inactive) | 33 µM (inactive) | 45.4 µM (inactive) | 31 µM | – | 26.8 µM (inactive) |
| CC#CC1C2CCCC1(CSc1ccccc1)NC(=O)O2 (stereo not drawn) | > 100 µM (inactive) | > 100 µM (inactive) | – | > 100 µM (inactive) | > 100 µM (inactive) | > 100 µM (inactive) | > 100 µM (inactive) | > 100 µM (inactive) | > 100 µM (inactive) | > 100 µM (inactive) | – | > 100 µM (inactive) | > 100 µM (inactive) | > 100 µM | – | > 100 µM (inactive) |
| O=c1c2ccccc2nc(-c2ccccc2)n1NC(=S)Nc1ccc(Cl)cc1[N+](=O)[O-] | > 100 µM (inactive) | > 100 µM (inactive) | 62.4 µM (inactive) | 55.1 µM (inactive) | > 100 µM (inactive) | > 100 µM (inactive) | > 100 µM (inactive) | – | > 100 µM (inactive) | > 100 µM (inactive) | 21.7 µM (inactive) | 65 µM (inactive) | 42.2 µM (inactive) | 35 µM | – | 41.1 µM (inactive) |
| COc1ccc(COCC(Cn2ccnc2)OCc2ccc(C(=O)O)cc2)cc1 (stereo not drawn) | > 100 µM (inactive) | > 100 µM (inactive) | > 100 µM (inactive) | > 100 µM (inactive) | > 100 µM (inactive) | > 100 µM (inactive) | > 100 µM (inactive) | – | > 100 µM (inactive) | > 100 µM (inactive) | > 100 µM (inactive) | > 100 µM (inactive) | > 100 µM (inactive) | > 100 µM | – | > 100 µM (inactive) |
| COC(=O)C1Cc2c([nH]c3ccccc23)C(c2ccccc2O)N1Cc1ccccc1 (stereo not drawn) | 20.7 µM (inactive) | 22.2 µM (inactive) | > 46.5 µM (inactive) | 22.6 µM (inactive) | 38.4 µM (inactive) | > 31.6 µM (inactive) | 30.8 µM (inactive) | 27.7 µM (inactive) | 29.4 µM (inactive) | 26.4 µM (inactive) | > 31.6 µM (inactive) | 36 µM (inactive) | 31 µM (inactive) | > 46.5 µM | – | 27.8 µM (inactive) |
| CCCCC1CC(c2ccc(Cl)cc2)=NO1 (stereo not drawn) | > 100 µM (inactive) | > 100 µM (inactive) | > 100 µM (inactive) | > 100 µM (inactive) | > 100 µM (inactive) | > 100 µM (inactive) | > 100 µM (inactive) | > 100 µM (inactive) | > 100 µM (inactive) | > 100 µM (inactive) | > 100 µM (inactive) | > 100 µM (inactive) | > 100 µM (inactive) | > 100 µM | – | > 100 µM (inactive) |
| c1cc2[se][se]c3c4cccc5[se][se]c(c(c1)c23)c54 | > 100 µM (inactive) | > 100 µM (inactive) | > 100 µM (inactive) | > 100 µM (inactive) | > 100 µM (inactive) | > 100 µM (inactive) | > 100 µM (inactive) | > 100 µM (inactive) | > 100 µM (inactive) | > 100 µM (inactive) | > 100 µM (inactive) | > 100 µM (inactive) | > 100 µM (inactive) | – | – | > 100 µM (inactive) |
| CSc1ccc(/C=C2/C[N+](C)(C)C/C(=C/c3ccc(SC)cc3)C2=O)cc1 | 13.7 µM (inactive) | – | 3.56 µM (inactive) | 24.5 µM (inactive) | 13.5 µM (inactive) | 4.16 µM (inactive) | – | 15.9 µM (inactive) | 8.89 µM (inactive) | 10.5 µM (inactive) | 8.09 µM (inactive) | 7.89 µM (inactive) | > 100 µM (inactive) | 47 µM | – | 17.7 µM (inactive) |
| Cn1nc(-c2ccccc2)c(C(=O)/C=C/c2ccc(F)cc2)c(N2CCCC2)c1=O | 13 µM (inactive) | 12.2 µM (inactive) | 5.36 µM (inactive) | 13.9 µM (inactive) | 15.9 µM (inactive) | – | 21.7 µM (inactive) | – | 15.1 µM (inactive) | 14.3 µM (inactive) | 16 µM (inactive) | 16.9 µM (inactive) | > 10 µM (inactive) | 12.2 µM | – | 13.6 µM (inactive) |
| C=C1C(=O)OC2/C=C(\C)C3OC3/C=C(/C(=O)OC)C(O)C(OC(=O)C3(C)OC3C)C12 (stereo not drawn) | 1.74 µM (inactive) | 1.08 µM (active) | 0.397 µM (active) | 2.86 µM (inactive) | 1.9 µM (inactive) | 1.52 µM (inactive) | 5.41 µM (inactive) | 2.42 µM (inactive) | 1.25 µM (inactive) | 15.3 µM (inactive) | 1.52 µM (inactive) | 2.39 µM (inactive) | 11.2 µM (inactive) | 1.53 µM | – | 2.18 µM (inactive) |
| Cc1ccccc1-n1c(C)nc2c1C(=O)c1ccccc1C2=O | 44.8 µM (inactive) | 42.7 µM (inactive) | 50.2 µM (inactive) | – | 42 µM (inactive) | 15.3 µM (inactive) | 36.1 µM (inactive) | 24.8 µM (inactive) | 47.9 µM (inactive) | 67.5 µM (inactive) | > 100 µM (inactive) | 52.4 µM (inactive) | 39.2 µM (inactive) | 34.8 µM | – | 28.2 µM (inactive) |
